Columns and labels:
[1] = test system: cotton; test: Pouch assay of cotton after PESA salt and clothianidin seed treatments; type: in vivo; conditions: seed treatment; for shoot length of cotton: control 3.7; for root length of cotton: control 9.6
Procedure: (§1) Seed was sieved with a screen of hole size appropriate to remove broken seeds and small trash. Cracked or otherwise damaged seeds were removed. The seed was well mixed, and 50 g samples were weighed into small plastic trays. Seed treatment slurries were made by adding measured amounts of the active ingredients to sufficient water to bring them up to a standard volume, typically 2 ml. A fungicide (Maxim XL; Syngenta Agricultural Products, Greensboro, N.C.), a polymeric binder (CF-Clear; Becker-Underwood, Ames, Iowa), and a colorant (Color Coat Red; Becker-Underwood, Ames, Iowa) were also included in the slurry at label rates. A small aliquot of this slurry was applied to the seed using the Hege 11 coater (Wintersteiger, Salt Lake City, Utah) with a six-inch bowl. The slurry was deposited drop-wise on the spinning disk atomizer using a syringe.
(§2) Seeds were placed in germination pouches consisting of germination paper hydrated with sterile water that was an insert in a gas-permeable 16×14 cm plastic pouch (CYG Pouch; Mega International, St. Paul, Minn.). In these examples, in pouch solution evaluation, clothianidin and PESA sodium salt were added to the sterile water in the pouch. Alternatively, imidacloprid or dinotefuran and PESA sodium salt were added to the sterile water in the pouch. The pouches were arranged in a completely randomized block design in growth racks and placed in 19-liter polycarbonate food storage containers (Rubbermaid Commercial Products, Winchester, Va.). The sealed containers were held in an upright growth cabinet maintained at 25 C with a 12 hour light: 12 hour dark photoperiod. After 6 days, the containers were removed from the growth cabinet, and the lengths of the roots and shoot were measured.

[2] = test system: cotton; test: Continuous exposure pouch study, PESA salt and clothianidin on cotton; type: in vivo
Procedure: as §2

[3] = test system: soybean; test: Field study, seed treatment of soybean; type: in vivo
Procedure: (§3) For the field studies, the seed was treated with a seed treatment formulation containing clothianidin. The rate of clothianidin was dependent on the crop species. The seed treatment formulations were amended with the appropriate concentrations of either PESA or the sodium salt of PESA. Crops were planted and grown under standard agricultural practices, and evaluated at the times indicated. The sodium salt of PESA was prepared as described above, and was used in seed treatment either alone or in the presence of clothianidin. Soybean seed was treated with 0 or 50 grams of clothianidin/100 kg (220 pound) of seed and with 0, 22, 55, or 137.5 grams PESA salt/100 kg seed.

[4] = test system: sorghum; test: Field study, seed treatment of sorghum; type: in vivo
Procedure: as §3, with “Sorghum” for “Soybean”, “200” for “50”

[5] = test system: canola; test: Field study, seed treatment of canola; type: in vivo, Brassica napus
Procedure: as §3, with “Canola (Brassica napus)” for “Soybean”, “400” for “50”

[6] = test system: maize; test: Field study, seed treatment of maize; type: in vivo, Zea mays
Procedure: For the field studies, the seed was treated with a seed treatment formulation containing clothianidin. The rate of clothianidin was dependent on the crop species. The seed treatment formulations were amended with the appropriate concentrations of either PESA or the sodium salt of PESA. Crops were planted and grown under standard agricultural practices, and evaluated at the times indicated. The PESA or the sodium salt of PESA was prepared as described above, and was used in seed treatment either alone or in the presence of clothianidin. Maize (Zea mays) seed was treated with 0 or 0.25 milligrams of clothianidin/seed and with 0, 22, 55, or 137.5 grams PESA salt/100 kg seed.

[7] = test system: cotton; test: Continuous exposure pouch study, PESA salt and imidacloprid on cotton; type: in vivo
Procedure: as §2, with “measured. […] Root lengths of the control and combination treatment of imidacloprid with 100 mg/liter PESA salt were similar.” for “measured.”

[8] = test system: rice; test: Pouch study of rice, imidacloprid seed treatment with PESA salt solution in pouch; type: in vivo; conditions: for shoot length of rice: control 3.3; for root length of rice: control 10.7
Procedure: as §1, §2
Root lengths of the control and combination treatment of 200 grams imidacloprid/100 pounds of seed with 50 mg/liter PESA salt were similar.

[9] = clothianidin 182 g/100 pounds of seed alone
[10] = clothianidin 364 g/100 pounds of seed alone
[11] = imidacloprid 200 g/100 pounds of seed alone
[12] = imidacloprid 400 g/100 pounds of seed alone
[13] = imidacloprid 800 g/100 pounds of seed alone

CN/C(=N\[N+](=O)[O-])NCc1cnc(Cl)s1 [Clothianidin, (E)-1-(2-chloro-1,3-thiazol-5-ylmethyl)-3-methyl-2-nitroguanidine, reference compound]
effect on cotton shoot length ([1]; Table 2): increased cotton shoot length
shoot length of cotton [1, 9]: 4.1 cm
root length of cotton [1, 9]: 7.8 cm
shoot length of cotton [1, 10]: 4.2 cm
root length of cotton [1, 10]: 7.9 cm
effect on cotton root length ([1]; clothianidin alone 182 or 364 g/100 pounds of seed): reduced cotton root length
effect on cotton root length ([2]; continuous exposure pouch, substance alone): decreased the length of the root
effect on cotton shoot length ([2]; continuous exposure pouch, clothianidin alone): not affected
shoot length of cotton ([2]; in pouch, clothianidin 1000 mg/liter alone, control 6.1): 6.1 cm
root length of cotton ([2]; in pouch, clothianidin 1000 mg/liter alone, control 11.4): 8.9 cm
average plant height of soybean ([3]; 66 days after planting, clothianidin 50 g/100 kg seed alone, control 23.8): 21.6 inches
effect on soybean plant height ([3]; clothianidin alone, 50 g/100 kg seed): reduced plant height as compared to the control
root dry weight of a sample of 10 sorghum plants ([4]; 73 days after planting, clothianidin 200 g/100 kg seed alone, control 148.5): 108.7 grams
effect on sorghum root dry weight ([4]; clothianidin alone, 200 g/100 kg seed): reduced root dry weight as compared to the control
vigor rating (1 = low and 5 = high) of canola plants ([5]; 19 days after planting, clothianidin 400 g/100 kg seed alone, control 3.8): 2.5
effect on canola plant vigor ([5]; clothianidin alone, 400 g/100 kg seed): reduced plant vigor as compared to the control
vigor rating of maize plants, Vigor (1-5) ([6]; 27 days after planting, clothianidin 0.25 mg/seed alone, control 3.6): 3.1
effect on maize plant vigor ([6]; clothianidin alone, 0.25 mg/seed): reduced plant vigor as compared to the control

O=[N+]([O-])N=C1NCCN1Cc1ccc(Cl)nc1 [Imidacloprid, (EZ)-1-(6-chloro-3-pyridylmethyl)-N-nitroimidazolidin-2-ylideneamine]
effect on cotton root length ([7]; continuous exposure pouch, imidacloprid 1000 mg/liter alone): decreased root length
effect on cotton shoot length ([7]; imidacloprid alone): not affected
shoot length of cotton ([7]; in pouch, imidacloprid 1000 mg/liter alone, control 6.2): 6.0 cm
root length of cotton ([7]; in pouch, imidacloprid 1000 mg/liter alone, control 13.3): 7.7 cm
shoot length of rice [8, 11]: 3.6 cm
root length of rice [8, 11]: 9.6 cm
shoot length of rice [8, 12]: 3.3 cm
root length of rice [8, 12]: 8.9 cm
shoot length of rice [8, 13]: 3.6 cm
root length of rice [8, 13]: 8.3 cm
effect on rice root length ([8]; seed treatment with imidacloprid alone): decreased the root length in a dose-dependent manner

O=C(O)CCC(=O)NCCc1ccccc1 [PESA, N-(2-phenylethyl)succinamic acid]
safening of maize ([6]; conclusion from Table 12): safened maize against clothianidin-induced vigor reduction
